According to publication PMC4634863, “A Putative Non-Canonical Ras-Like GTPase from P. falciparum: Chemical Properties and Characterization of the Protein” (PLoS ONE, 2015):

Target: T1, PfG (Plasmodium falciparum, UniProt O77338)
T1 construct: gene PF3D7_0313500
T1 sequence (O77338 1-911): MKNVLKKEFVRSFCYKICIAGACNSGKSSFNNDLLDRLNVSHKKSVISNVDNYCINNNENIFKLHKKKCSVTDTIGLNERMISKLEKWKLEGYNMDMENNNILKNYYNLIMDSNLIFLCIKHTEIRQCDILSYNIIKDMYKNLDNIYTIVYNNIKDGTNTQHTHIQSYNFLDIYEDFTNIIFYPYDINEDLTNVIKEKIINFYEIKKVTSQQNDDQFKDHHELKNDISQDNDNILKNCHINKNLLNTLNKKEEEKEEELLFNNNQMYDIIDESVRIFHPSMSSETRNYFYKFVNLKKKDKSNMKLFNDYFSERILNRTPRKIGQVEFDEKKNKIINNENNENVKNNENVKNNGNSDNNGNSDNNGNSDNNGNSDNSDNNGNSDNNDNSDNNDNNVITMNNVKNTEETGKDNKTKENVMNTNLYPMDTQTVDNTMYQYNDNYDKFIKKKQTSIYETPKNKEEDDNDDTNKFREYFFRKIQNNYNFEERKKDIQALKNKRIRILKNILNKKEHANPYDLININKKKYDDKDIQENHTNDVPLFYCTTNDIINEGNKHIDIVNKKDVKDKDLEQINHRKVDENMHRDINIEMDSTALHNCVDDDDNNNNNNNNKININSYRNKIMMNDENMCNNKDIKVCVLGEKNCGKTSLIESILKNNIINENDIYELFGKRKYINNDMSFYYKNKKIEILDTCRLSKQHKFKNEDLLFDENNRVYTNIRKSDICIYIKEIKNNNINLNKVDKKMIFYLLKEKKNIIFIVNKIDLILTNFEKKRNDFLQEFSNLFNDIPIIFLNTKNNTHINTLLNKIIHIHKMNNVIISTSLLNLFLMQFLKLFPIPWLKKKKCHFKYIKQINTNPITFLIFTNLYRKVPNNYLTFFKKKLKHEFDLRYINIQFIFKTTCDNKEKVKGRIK
Test: fluorescence emission on binding, […] s time courses
Details: labelled compound; reversible nucleotide binding, unit printed as nmol (nM probably meant)

BODIPY® FL GTPγS
dissociation constant (Kd): 1.77 ± 0.36 nmol
